Measurements published in publication PMC3304435 (Biochemistry, 2012).

Target: Escherichia coli RtcB ligase (Escherichia coli, UniProt P46850)
Type: biochemical
Settings: Mn2+; 3′-P / 5′-OH tRNA-mimic RNA substrate; estimated upper limit

Escherichia coli RtcB ligase, sequence (P46850 whole entry): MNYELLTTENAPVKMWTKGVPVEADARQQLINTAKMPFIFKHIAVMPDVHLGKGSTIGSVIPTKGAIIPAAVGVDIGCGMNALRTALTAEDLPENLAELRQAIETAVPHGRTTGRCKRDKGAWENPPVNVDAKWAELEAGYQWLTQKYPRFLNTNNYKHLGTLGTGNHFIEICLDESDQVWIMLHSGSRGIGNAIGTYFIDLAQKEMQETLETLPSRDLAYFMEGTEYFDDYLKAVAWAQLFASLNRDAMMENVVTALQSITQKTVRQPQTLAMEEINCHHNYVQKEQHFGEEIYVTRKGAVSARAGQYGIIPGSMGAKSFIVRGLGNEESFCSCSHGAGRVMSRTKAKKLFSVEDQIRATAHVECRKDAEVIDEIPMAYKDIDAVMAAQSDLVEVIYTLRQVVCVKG

Question: `Nc1nc2c(ncn2[C@@H]2O[C@H](COP(=O)(O)OP(=O)(O)OP(=O)(O)O)[C@@H](O)[C@H]2O)c(=O)[nH]1` [GTP] was tested. Which Km did it give?
Answer: < 16 µM
